The subject of one test is P. infestans. Type of test: cell-based, Phytophthora infestans.
Test [1] deals with Phytophthora infestans strain Pi61. Type of test: in vivo. As to conditions: in methanol, applied at 150 g/ha; Shirlan applied at 200 g/ha (FIGS. 10a, 10b).
In test [2] the test system is Puccinia triticina strain BT06M215. In words: in planta intensity of infection of wheat leaves by Puccinia triticina. Type of test: in vivo. From the text:
This experiment illustrates the effect of the crude extract (YE) of P. aphidis, synthetic (E)-2-octyl-2-pentenedioic acid (PA), extracted 2-octyl-2 pentenedioic acid from Pseudozyma aphidis in methanol, Rhapsody® (Bacillus subtilis) and Amistart (azoxystrobin) at 0.1% on the intensity of infection of wheat leaf fragments by uredospores of Puccinia triticina strain BT06M215. Rhapsody® (Bacillus subtilis) and Amistar® (azoxystrobin) are commercially available fungicidal solutions. P. titicina strain BT06M215 was isolated from untreated wheat leaves in France.
All fungicidal products were prepared in a volume of water corresponding to 200 L/ha. […]
For each experimental condition tested, 18 replicates of one wheat leaf were tested. […] Disease assessment (intensity of infection) on the first leaf of each wheat plantlets is monitored at 8 to 15 days post inoculation.

Test [3] has as its system Zymoseptoria tritici strain Mg Tri-R6. It counts as in vivo. As to conditions: wheat; in methanol, applied at 100 gr/ha; Proline applied at 0.8 L/ha (FIGS. 7a, 7b).
In test [4] the test system is B. cinerea. Description: bio-assay in liquid medium (PDB) with B. cinerea as indicator strain. Type of test: cell-based, Botrytis cinerea. The conditions noted are these: at both a pH of 3 and a pH of 5 (FIG. 1). How it is done:
2-octyl-2 pentenedioic acid was also evaluated for antifungal activity using bio-assay in liquid medium using B. cinerea as an indicator strain. The bio-assay was carried out in PDB liquid medium.
The bio-assay for determination of antifungal activity was set-up based on the procedure as described in Stammler and Speakman, 2006. Microtiter Method to Test the Sensitivity of Botrytis cinerea to Boscalid. Journal of Phytopathology, 154, 7-8, p 508-510. This bio-assay is based on dilution of the antimicrobial agent and determination of growth inhibition of a sensitive indicator strain, in this case Botrytis cinerea. The bio-assay was performed in 96-well microtiter plates and included micro-dilutions of the antimicrobial agent in a liquid growth medium, where each well was inoculated with a standardized number of fungal spores of the indicator strain. After incubation (no agitation, 18° C. in darkness for 5 days), the results were obtained by measurement of fungal growth by photometer at 405 nm and the values were corrected by comparison with the blanks (cultures without the antimicrobial compound). The ED (effective dose) values are compared with reference standard fungicides.

The subject of test [5] is B. cinerea. Description: bio-assay with tomato leaves against B. cinerea. It counts as in vivo, Botrytis cinerea. The source says:
The untreated control (#2, only 70% ethanol) was taken as a reference for the maximal infection rate.

Where two headings read alike, the source gives them in different places.

With `CCCCCCCC/C(=C\CC(=O)O)C(=O)O` [2-octyl-2 pentenedioic acid (synthetic), (E)-2-octyl-2-pentenedioic acid], the ED90 was 41 ppm in the test on P. infestans (pH 4.6, V8 juice liquid media); 42 ppm in the test with P. infestans (pH 6.2, V8 juice liquid media); “Not detected” in the test with P. infestans (pH 8.0, V8 juice liquid media). Further, the “efficacy against Phytophthora infestans compared to Shirlan (fluazinam)” value in test [1] is on record as “comparable efficacy”. For the same compound, the “efficacy against Puccinia triticina compared to Rhapsody” value in test [2] (Rhapsody applied at 2.0 L/ha (FIGS. 3a, 3b)) was “comparable efficacy”.

In the case of `CCCCCCCCC(=CCC(=O)O)C(=O)O` [2-octyl-2 pentenedioic acid], the ED90 with P. infestans (pH 4.6, V8 juice liquid media) was 37 ppm; with P. infestans (pH 6.2, V8 juice liquid media), 41 ppm; in the test on P. infestans (pH 8.0, V8 juice liquid media), “Not detected”. For the same compound, in test [3], the “efficacy against Zymoseptoria tritici compared to Proline” value is “comparable efficacy”. In addition, in the test with B. cinerea [4], the “efficacy against B. cinerea” value is on record as “excellent efficacy”. Moreover, the “efficacy against Puccinia triticina compared to Amistar” value in test [2] (in methanol, applied at 100 g/ha, Amistar applied at 1 L/ha (FIGS. 4a, 4b)) was “comparable efficacy”.

Regarding `CC(=O)O` [Sample 3, Acetic acid], the “effect on B. cinerea infection (in words)” value with B. cinerea [5] is on record as “inhibited B. cinerea infection”.

Values taken from US20230371507A1 (priority 2020, published 2023).
